Test system: alcohol preferring rats
Assay: Alcohol Preferring Rats In Vivo Model, acute oral dosing, two-bottle choice
Design: species or system rat
Conditions: for Alcohol Intake / Alcohol Preference: mean ± S.E.M., N = 14
Method: Adult male selectively-bred alcohol preferring rats (N=14) were used. This particular strain of alcohol drinking rat has been characterized and have been widely used to study the effects of different compounds on voluntary alcohol intake (Farren et al., 2000; Rezvani et al, 1990, 1991, 1992a, 1992b, 1999, 2000, 2003; Murphy et al, 1988; Overstreet et al., 2003, 1999; Li and McBride, 1990). Rats were housed individually in approved cages under a constant room temperature of 22+1° C. and 12:12 light-dark cycle (8:00-20:00, dark). Animal were fed Agway Prolab Rat/Mouse/Hamster 3000 formula and water ad libitum.
Alcohol intake was determined using the standard two-bottle choice method utilized in our and other laboratories for many years (Murphy et al. 1988; Rezvani et al. 1990, 1991, 1993, 1995, 1997, Rezvani and Grady, 1994, Rezvani et al., 1993). Animals were first given free access to water in a graduated Richter tube for 2 days. Next, they were given access to only a solution of 10% (v/v) ethanol for 3 consecutive days. During this period animals became accustomed to drinking from Richter tubes and to the taste and pharmacological effects of alcohol. Thereafter, they were given free access to both water and a solution of 10% alcohol for at least 4 consecutive weeks and throughout of the period of study. Rats had free access to food. Water and alcohol intake were recorded at 6 and 24 hour after the treatment, whereas food intake was measured at 24 hour. Animals' body weights were measured the day of the treatment and the day after.
After establishment of stable baseline for alcohol, food, and water intake, rats were administered (gavage) at 9:30 a.m. either with the vehicle or the compound of formula (I) at one of four doses (1,3,10 and 30 mg/kg) using a cross-over design with random assignment. To be able to compare the efficacy of the compound of formula (I) on alcohol intake naltrexone was included as a positive control. The same rats were given an oral dose of 20 mg/kg naltrexone. All animals will receive all treatments in a random order. The interval between treatments was at least 1 week. Alcohol and water intake were recorded 6 and 24 h after the drug administration and food intake was recorded at 24 hr. The volume of the drug administration was 6 ml/kg.
The results at 6 and 24 hours post-dosing are presented in Tables 3 and 4 below, as means ±SEM. Alcohol intake (g/kg) was calculated by multiplying the volume of alcohol consumed in ml by 10% and 0.7893 (ethanol density)/body weight in kg. Alcohol preference, expressed as a percentage, was calculated as follows (volume of alcohol consumed in ml/total fluid intake in ml)×100 (Rezvani and Grady, 1994; Rezvani et al., 1997). Statistical differences between drug-treated and control groups were determined by using ANOVA with repeated measures. Each treatment was compared with the corresponding vehicle value.

[1] = 20 mg/kg p.o., 6 hrs post-dosing
[2] = 20 mg/kg p.o., 24 hrs post-dosing
[3] = 1 mg/kg p.o., 6 hrs post-dosing
[4] = 1 mg/kg p.o., 24 hrs post-dosing
[5] = 3 mg/kg p.o., 6 hrs post-dosing
[6] = 3 mg/kg p.o., 24 hrs post-dosing
[7] = 10 mg/kg p.o., 6 hrs post-dosing
[8] = 10 mg/kg p.o., 24 hrs post-dosing
[9] = 30 mg/kg p.o, 6 hrs post-dosing
[10] = 30 mg/kg p.o, 24 hrs post-dosing

O=C1CC[C@@]2(O)[C@H]3Cc4ccc(O)c5c4[C@@]2(CCN3CC2CC2)[C@H]1O5 [Naltrexone, naltrexone, reference compound]
Alcohol Intake [1]: 1.19 ± 0.25 g/kg
Alcohol Preference [1]: 46.8 ± 7.91%
Alcohol Intake [2]: 3.64 ± 0.545 g/kg
Alcohol Preference [2]: 58.8 ± 6.77%
Alcohol intake compared with vehicle (naltrexone 20 mg/kg oral, 24 hr post-dosing): remained statistically significantly (p<0.0028) in reducing alcohol intake
Alcohol preference compared with vehicle (naltrexone 20 mg/kg oral, both 6 hours and 24 hours post-dosing): reduced alcohol preference

Cc1cccc2cccc(CN3CCC4(CC3)C(=O)N(C[C@H](O)CN)CN4c3ccc(F)cc3)c12 [Cmpd (I-A), 3-(3-amino-2-(R)-hydroxy-propyl)-1-(4-fluoro-phenyl)-8-(8-methyl-naphthalen-1-ylmethyl)-1,3,8-triazaspiro[4.5]decan-4-one]
Alcohol Intake [3]: 1.85 ± 0.234 g/kg
Alcohol Preference [3]: 75.1 ± 5.60%
Alcohol Intake [4]: 4.95 ± 0.389 g/kg
Alcohol Preference [4]: 80.4 ± 4.68%
Alcohol Intake [5]: 1.53 ± 0.184 g/kg
Alcohol Preference [5]: 61.6 ± 6.19%
Alcohol Intake [6]: 4.43 ± 0.339 g/kg
Alcohol Preference [6]: 68.9 ± 4.87%
Alcohol Intake [7]: 1.59 ± 0.238 g/kg
Alcohol Preference [7]: 62.4 ± 6.33%
Alcohol Intake [8]: 4.73 ± 0.351 g/kg
Alcohol Preference [8]: 71.7 ± 3.56%
Alcohol Intake [9]: 0.905 ± 0.198 g/kg
Alcohol Preference [9]: 46.7 ± 8.20%
Alcohol Intake [10]: 3.16 ± 0.582 g/kg
Alcohol Preference [10]: 50.1 ± 7.77%
Alcohol preference compared with vehicle (30 mg/kg, both 6 hours and 24 hours post-dosing): reduced alcohol preference
Alcohol intake compared with vehicle (acute oral administration of 3, 10 and 30 mg/kg, at 6 hr): significantly reduced alcohol intake
Alcohol intake compared with vehicle (at 24 hr, only "the mg/kg dose" (dose figure missing)): statistically significantly (p<0.0002) in reducing alcohol intake
Alcohol preference compared with vehicle (other doses (1, 3, 10 mg/kg), 6 hours and 24 hours post-dosing): did not significantly affect alcohol preference

— patent US20080200492A1, “METHODS FOR THE TREATMENT OF ALCOHOL ABUSE, ADDICTION AND DEPENDENCY” (priority 2006, published 2008)
